Assay results taken from patent EP4667483A1, “HUMAN TRANSFERRIN RECEPTOR-BINDING PEPTIDE” (JCR Pharmaceuticals Co., Ltd., priority 2023, dated 2024).
Bridge positions count the residues as written; N and C are the ends. Square brackets hold non-standard residues; d marks the D form. Peptide text beside a SMILES is read from it. * marks the point of attachment. Trp(7-aza) = N[C@@H](Cc1c[nH]c2ncccc12)C(=O)O; NMePhe(3-Cl) = CN[C@@H](Cc1cccc(Cl)c1)C(=O)O; Trp(1-Me) = Cn1cc(C[C@H](N)C(=O)O)c2ccccc21; 3Pal(6-NH2) = Nc1ccc(C[C@H](N)C(=O)O)cn1; NMeW = CN[C@@H](Cc1c[nH]c2ccccc12)C(=O)O; PEG8 = NCCOCCOCCOCCOCCOCCOCCOCCOCCC(=O)O; NMeY = CN[C@@H](Cc1ccc(O)cc1)C(=O)O; Nva(3-Et) = CCC(CC)[C@H](N)C(=O)O; NMeF = CN[C@@H](Cc1ccccc1)C(=O)O; 4Pal = N[C@@H](Cc1ccncc1)C(=O)O; PEG4 = NCCOCCOCCOCCOCCC(=O)O; Carboxymethyl = O=C(O)C*

Assays:
[1] = biological target: T1, human transferrin receptor (hTfR) (Homo sapiens, UniProt P02786); test: SPR measurement under pH 6.0 conditions (Biacore T200, NTA chip, immobilized hTfR); assay type: binding; conditions: SPR, pH 6.0; peptide with the linker named in the table; read-out: hTfR SPR pH6.0 KD
[2] = biological target: T1, human transferrin receptor (hTfR); test: SPR measurement under pH 7.4 conditions (Biacore T200, CM3 chip, hTfR captured by His Tag antibody); assay type: binding; conditions: SPR, pH 7.4; peptide with the linker named in the table; read-out: hTfR SPR pH7.4 KD

T1 sequence (P02786 whole entry): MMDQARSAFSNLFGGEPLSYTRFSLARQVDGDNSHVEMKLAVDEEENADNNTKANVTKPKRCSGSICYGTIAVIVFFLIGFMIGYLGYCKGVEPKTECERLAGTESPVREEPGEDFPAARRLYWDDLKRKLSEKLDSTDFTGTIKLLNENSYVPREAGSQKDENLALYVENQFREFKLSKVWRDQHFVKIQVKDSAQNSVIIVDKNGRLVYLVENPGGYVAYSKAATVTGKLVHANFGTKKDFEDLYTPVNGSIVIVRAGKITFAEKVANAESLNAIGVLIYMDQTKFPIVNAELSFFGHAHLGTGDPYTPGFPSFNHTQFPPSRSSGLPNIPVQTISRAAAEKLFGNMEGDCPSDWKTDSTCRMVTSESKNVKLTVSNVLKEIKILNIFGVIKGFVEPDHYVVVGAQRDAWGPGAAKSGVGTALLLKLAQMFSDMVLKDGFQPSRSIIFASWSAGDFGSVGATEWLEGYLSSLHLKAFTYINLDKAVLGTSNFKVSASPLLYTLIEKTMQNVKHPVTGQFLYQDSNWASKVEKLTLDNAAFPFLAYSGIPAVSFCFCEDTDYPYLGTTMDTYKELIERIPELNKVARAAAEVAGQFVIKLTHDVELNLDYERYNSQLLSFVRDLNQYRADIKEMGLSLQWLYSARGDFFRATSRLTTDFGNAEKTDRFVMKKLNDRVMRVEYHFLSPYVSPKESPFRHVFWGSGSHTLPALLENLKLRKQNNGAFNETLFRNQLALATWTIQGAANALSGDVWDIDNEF

Row | SMILES | Kd [1] [nM] | Kd [2] [nM]
1 | CCC(CC)[C@@H]1NC(=O)[C@H](Cc2ccc(OC)cc2)NC(=O)[C@H](Cc2ccc(O)cc2)NC(=O)[C@H](CC(N)=O)NC(=O)[C@H](Cc2cn(C)c3ccccc23)NC(=O)[C@H](C(C)C)NC(=O)[C@H](Cc2cccc(Cl)c2)N(C)C(=O)[C@H](C(C)C)NC(=O)[C@H](C)NC(=O)CSC[C@@H](C(=O)NCCOCCOCCOCCOCCC(N)=O)NC(=O)[C@H](Cc2ccc(O)cc2)N(C)C(=O)[C@H](Cc2ccncc2)NC(=O)[C@H](CCCNC(=N)N)NC(=O)[C@H](CCCCN)NC(=O)[C@H]([C@@H](C)CC)NC1=O [compound 128] ({CH2CO}-AV[NMePhe(3-Cl)]V[Trp(1-Me)]NYY(Me)[Nva(3-Et)]IKR[4Pal][NMeY]C[PEG4]-NH2; thioether N-15) | 3.23 | 1.1
2 | CC[C@H](C)[C@@H]1NC(=O)[C@H](Cc2ccc(OC)cc2)NC(=O)[C@H](Cc2ccc(O)cc2)NC(=O)[C@H](CC(N)=O)NC(=O)[C@H](Cc2cn(C)c3ccccc23)NC(=O)[C@H](C(C)C)NC(=O)[C@H](Cc2cccc(Cl)c2)N(C)C(=O)[C@H](C(C)C)NC(=O)[C@H](C)NC(=O)CSC[C@@H](C(=O)NCCOCCOCCOCCOCCC(N)=O)NC(=O)[C@H](Cc2ccc(O)cc2)N(C)C(=O)[C@H](Cc2ccncc2)NC(=O)[C@H](CCCNC(=N)N)NC(=O)[C@H](CCCCN)NC(=O)[C@H]([C@@H](C)CC)NC1=O [compound 130] | 1.74 | 0.678
3 | CC[C@H](C)[C@@H]1NC(=O)[C@H](Cc2ccc(OCC(=O)O)cc2)NC(=O)[C@H](Cc2ccc(O)cc2)NC(=O)[C@H](CC(N)=O)NC(=O)[C@H](Cc2c[nH]c3ncccc23)NC(=O)[C@H](C(C)C)NC(=O)[C@H](Cc2cccc(Cl)c2)N(C)C(=O)[C@H](C(C)C)NC(=O)[C@H](C)NC(=O)CSC[C@@H](C(=O)NCCOCCOCCOCCOCCC(N)=O)NC(=O)[C@H](Cc2ccc(O)cc2)N(C)C(=O)[C@H](CCC(=O)NCCOCCOCCOCCOCCOCCOCCOCCOCCC(=O)O)NC(=O)[C@H](CCCNC(=N)N)NC(=O)[C@H](CCC(N)=O)NC(=O)[C@H]([C@@H](C)CC)NC1=O [compound 139] ({CH2CO}-AV[NMePhe(3-Cl)]V[Trp(7-aza)]NYY(Carboxymethyl)IIQRE(PEG8)[NMeY]C[PEG4]-NH2; thioether N-15) | 524 | 107
4 | CC[C@H](C)[C@@H]1NC(=O)[C@H](Cc2ccc(OC)cc2)NC(=O)[C@H](Cc2ccc(O)cc2)NC(=O)[C@H](CC(N)=O)NC(=O)[C@H](Cc2c[nH]c3ncccc23)NC(=O)[C@H](C(C)C)NC(=O)[C@H](Cc2cccc(Cl)c2)N(C)C(=O)[C@H](C(C)C)NC(=O)[C@H](C)NC(=O)CSC[C@@H](C(=O)NCCOCCOCCOCCOCCC(N)=O)NC(=O)[C@H](Cc2ccc(O)cc2)N(C)C(=O)[C@H](CCC(=O)NCCOCCOCCOCCOCCOCCOCCOCCOCCC(=O)O)NC(=O)[C@H](CCCNC(=N)N)NC(=O)[C@H](CCC(=O)NCCOCCOCCOCCOCCOCCOCCOCCOCCC(=O)O)NC(=O)[C@H]([C@@H](C)CC)NC1=O [compound 141] ({CH2CO}-AV[NMePhe(3-Cl)]V[Trp(7-aza)]NYY(Me)IIE(PEG8)RE(PEG8)[NMeY]C[PEG4]-NH2; thioether N-15) | 212 | 142
5 | CC[C@H](C)[C@@H]1NC(=O)[C@H](Cc2ccc(OCC(=O)O)cc2)NC(=O)[C@H](Cc2ccc(O)cc2)NC(=O)[C@H](CC(N)=O)NC(=O)[C@H](Cc2c[nH]c3ncccc23)NC(=O)[C@H](C(C)C)NC(=O)[C@H](Cc2cccc(Cl)c2)N(C)C(=O)[C@H](C(C)C)NC(=O)[C@H](C)NC(=O)CSC[C@@H](C(=O)NCCOCCOCCOCCOCCC(N)=O)NC(=O)[C@H](Cc2ccc(O)cc2)N(C)C(=O)[C@H](CCC(=O)NCCOCCOCCOCCOCCC(=O)O)NC(=O)[C@H](CCCNC(=N)N)NC(=O)[C@H](CCC(N)=O)NC(=O)[C@H]([C@@H](C)CC)NC1=O [compound 143] ({CH2CO}-AV[NMePhe(3-Cl)]V[Trp(7-aza)]NYY(Carboxymethyl)IIQRE(PEG4)[NMeY]C[PEG4]-NH2; thioether N-15) | 271 | 59.1
6 | CC[C@H](C)[C@@H]1NC(=O)[C@H](Cc2ccc(OC)cc2)NC(=O)[C@H](Cc2ccc(O)cc2)NC(=O)[C@H](CC(N)=O)NC(=O)[C@H](Cc2c[nH]c3ncccc23)NC(=O)[C@H](C(C)C)NC(=O)[C@H](Cc2cccc(Cl)c2)N(C)C(=O)[C@H](C(C)C)NC(=O)[C@H](C)NC(=O)CSC[C@@H](C(=O)NCCOCCOCCOCCOCCC(N)=O)NC(=O)[C@H](Cc2ccc(O)cc2)N(C)C(=O)[C@H](CCC(=O)NCCOCCOCCOCCOCCC(=O)O)NC(=O)[C@H](CCCNC(=N)N)NC(=O)[C@H](CCC(=O)NCCOCCOCCOCCOCCC(=O)O)NC(=O)[C@H]([C@@H](C)CC)NC1=O [compound 145] ({CH2CO}-AV[NMePhe(3-Cl)]V[Trp(7-aza)]NYY(Me)IIE(PEG4)RE(PEG4)[NMeY]C[PEG4]-NH2; thioether N-15) | 199 | 48.5
7 | CC[C@H](C)[C@@H]1NC(=O)[C@H](Cc2ccc(OCC(=O)O)cc2)NC(=O)[C@H](Cc2ccc(N)nc2)NC(=O)[C@H](CC(N)=O)NC(=O)[C@H](Cc2c[nH]c3ccccc23)NC(=O)[C@H](C(C)C)NC(=O)[C@H](Cc2cccc(Cl)c2)N(C)C(=O)[C@H](C(C)C)NC(=O)[C@H](C)NC(=O)CSC[C@@H](C(=O)NCC(=O)N[C@@H](CCCCN=[N+]=[N-])C(N)=O)NC(=O)[C@H](Cc2ccc(O)cc2)N(C)C(=O)[C@H](Cc2cccc(C(=O)O)c2)NC(=O)[C@H](CCCNC(=N)N)NC(=O)[C@H](CCC(N)=O)NC(=O)[C@H]([C@@H](C)CC)NC1=O [compound 149] | 28.1 | 3.57

Continued by falling Kd [1], values first:

Row | Kd [1] [nM] | Kd [2] [nM] | SMILES
8 | 22.1 | 5.63 | CC[C@H](C)[C@@H]1NC(=O)[C@H](Cc2ccc(OCC(=O)O)cc2)NC(=O)[C@H](Cc2ccc(O)cc2)NC(=O)[C@H](CC(N)=O)NC(=O)[C@H](Cc2c[nH]c3ncccc23)NC(=O)[C@H](C(C)C)NC(=O)[C@H](Cc2cccc(Cl)c2)N(C)C(=O)[C@H](C(C)C)NC(=O)[C@H](C)NC(=O)CSC[C@@H](C(=O)NCCOCCOCCOCCOCCC(N)=O)NC(=O)[C@H](Cc2ccc(O)cc2)N(C)C(=O)[C@H](Cc2cccc(C(=O)NCCOCCOCCOCCOCCOCCOCCOCCOCCC(=O)O)c2)NC(=O)[C@H](CCCNC(=N)N)NC(=O)[C@H](CCC(N)=O)NC(=O)[C@H]([C@@H](C)CC)NC1=O [compound 140]
9 | 20.2 | 16.5 | CCC(CC)[C@@H]1NC(=O)[C@H](Cc2ccc(O)cc2)NC(=O)[C@H](Cc2ccc(N)nc2)NC(=O)[C@H](CC(N)=O)NC(=O)[C@H](Cc2c[nH]c3ccccc23)N(C)C(=O)[C@H](C(C)C)NC(=O)[C@H](Cc2ccccc2)N(C)C(=O)[C@H](C(C)C)NC(=O)[C@H](C)NC(=O)CSC[C@@H](C(=O)NCCOCCOCCOCCOCCC(N)=O)NC(=O)[C@H](Cc2ccc(O)cc2)N(C)C(=O)[C@H](Cc2ccc(O)cc2)NC(=O)[C@H](CCCNC(=N)N)NC(=O)[C@H](CCCCN)NC(=O)[C@H]([C@@H](C)CC)NC1=O [compound 133] ({CH2CO}-AV[NMeF]V[NMeW]N[3Pal(6-NH2)]Y[Nva(3-Et)]IKRY[NMeY]C[PEG4]-NH2; thioether N-15)
10 | 17.8 | 2.15 | CC[C@H](C)[C@@H]1NC(=O)[C@H](Cc2ccc(OC)cc2)NC(=O)[C@H](Cc2ccc(O)cc2)NC(=O)[C@H](CC(N)=O)NC(=O)[C@H](Cc2c[nH]c3ncccc23)NC(=O)[C@H](C(C)C)NC(=O)[C@H](Cc2cccc(Cl)c2)N(C)C(=O)[C@H](C(C)C)NC(=O)[C@H](C)NC(=O)CSC[C@@H](C(=O)NCCOCCOCCOCCOCCC(N)=O)NC(=O)[C@H](Cc2ccc(O)cc2)N(C)C(=O)[C@H](Cc2cccc(C(=O)NCCOCCOCCOCCOCCOCCOCCOCCOCCC(=O)O)c2)NC(=O)[C@H](CCCNC(=N)N)NC(=O)[C@H](CCC(=O)NCCOCCOCCOCCOCCOCCOCCOCCOCCC(=O)O)NC(=O)[C@H]([C@@H](C)CC)NC1=O [compound 142]
11 | 17.4 | 3.56 | CC[C@H](C)[C@@H]1NC(=O)[C@H](Cc2ccc(OCC(=O)O)cc2)NC(=O)[C@H](Cc2ccc(O)cc2)NC(=O)[C@H](CC(N)=O)NC(=O)[C@H](Cc2c[nH]c3ncccc23)NC(=O)[C@H](C(C)C)NC(=O)[C@H](Cc2cccc(Cl)c2)N(C)C(=O)[C@H](C(C)C)NC(=O)[C@H](C)NC(=O)CSC[C@@H](C(=O)NCCOCCOCCOCCOCCC(N)=O)NC(=O)[C@H](Cc2ccc(O)cc2)N(C)C(=O)[C@H](Cc2cccc(C(=O)NCCOCCOCCOCCOCCC(=O)O)c2)NC(=O)[C@H](CCCNC(=N)N)NC(=O)[C@H](CCC(N)=O)NC(=O)[C@H]([C@@H](C)CC)NC1=O [compound 144]
12 | 11.4 | 2.75 | CC[C@H](C)[C@@H]1NC(=O)[C@H](Cc2ccc(OC)cc2)NC(=O)[C@H](Cc2ccc(O)cc2)NC(=O)[C@H](CC(N)=O)NC(=O)[C@H](Cc2c[nH]c3ncccc23)NC(=O)[C@H](C(C)C)NC(=O)[C@H](Cc2cccc(Cl)c2)N(C)C(=O)[C@H](C(C)C)NC(=O)[C@H](C)NC(=O)CSC[C@@H](C(=O)NCCOCCOCCOCCOCCC(N)=O)NC(=O)[C@H](Cc2ccc(O)cc2)N(C)C(=O)[C@H](Cc2cccc(C(=O)NCCOCCOCCOCCOCCC(=O)O)c2)NC(=O)[C@H](CCCNC(=N)N)NC(=O)[C@H](CCC(=O)NCCOCCOCCOCCOCCC(=O)O)NC(=O)[C@H]([C@@H](C)CC)NC1=O [compound 146]
13 | 3.95 | 4.58 | CCC(CC)[C@@H]1NC(=O)[C@H](Cc2ccc(O)cc2)NC(=O)[C@H](Cc2ccc(N)nc2)NC(=O)[C@H](CC(N)=O)NC(=O)[C@H](Cc2c[nH]c3ccccc23)N(C)C(=O)[C@H](C(C)C)NC(=O)[C@H](Cc2cccc(Cl)c2)N(C)C(=O)[C@H](C(C)C)NC(=O)[C@H](C)NC(=O)CSC[C@@H](C(=O)NCCOCCOCCOCCOCCC(N)=O)NC(=O)[C@H](Cc2ccc(O)cc2)N(C)C(=O)[C@H](Cc2ccc(O)cc2)NC(=O)[C@H](CCCNC(=N)N)NC(=O)[C@H](CCCCN)NC(=O)[C@H]([C@@H](C)CC)NC1=O [compound 134] ({CH2CO}-AV[NMePhe(3-Cl)]V[NMeW]N[3Pal(6-NH2)]Y[Nva(3-Et)]IKRY[NMeY]C[PEG4]-NH2; thioether N-15)
